Measured values reported in ChEMBL document CHEMBL2074158, “Interaction of omeprazole, lansoprazole and pantoprazole with P-glycoprotein” (Naunyn Schmiedebergs Arch Pharmacol, 2001).

Tests used:
[1] = target: T1, ATP-dependent translocase ABCB1 (Homo sapiens, UniProt P08183); assay: TP_TRANSPORTER: transepithelial transport (basal to apical) in MDR1-expressing LLC-PK1 cells; type: functional, cell-based; conditions: pig
[2] = target: T1, ATP-dependent translocase ABCB1; assay: TP_TRANSPORTER: inhibition of Digoxin transepithelial transport (basal to apical) (Digoxin: 5 uM) in Caco-2 cells; type: functional, cell-based

T1 sequence (P08183 whole entry): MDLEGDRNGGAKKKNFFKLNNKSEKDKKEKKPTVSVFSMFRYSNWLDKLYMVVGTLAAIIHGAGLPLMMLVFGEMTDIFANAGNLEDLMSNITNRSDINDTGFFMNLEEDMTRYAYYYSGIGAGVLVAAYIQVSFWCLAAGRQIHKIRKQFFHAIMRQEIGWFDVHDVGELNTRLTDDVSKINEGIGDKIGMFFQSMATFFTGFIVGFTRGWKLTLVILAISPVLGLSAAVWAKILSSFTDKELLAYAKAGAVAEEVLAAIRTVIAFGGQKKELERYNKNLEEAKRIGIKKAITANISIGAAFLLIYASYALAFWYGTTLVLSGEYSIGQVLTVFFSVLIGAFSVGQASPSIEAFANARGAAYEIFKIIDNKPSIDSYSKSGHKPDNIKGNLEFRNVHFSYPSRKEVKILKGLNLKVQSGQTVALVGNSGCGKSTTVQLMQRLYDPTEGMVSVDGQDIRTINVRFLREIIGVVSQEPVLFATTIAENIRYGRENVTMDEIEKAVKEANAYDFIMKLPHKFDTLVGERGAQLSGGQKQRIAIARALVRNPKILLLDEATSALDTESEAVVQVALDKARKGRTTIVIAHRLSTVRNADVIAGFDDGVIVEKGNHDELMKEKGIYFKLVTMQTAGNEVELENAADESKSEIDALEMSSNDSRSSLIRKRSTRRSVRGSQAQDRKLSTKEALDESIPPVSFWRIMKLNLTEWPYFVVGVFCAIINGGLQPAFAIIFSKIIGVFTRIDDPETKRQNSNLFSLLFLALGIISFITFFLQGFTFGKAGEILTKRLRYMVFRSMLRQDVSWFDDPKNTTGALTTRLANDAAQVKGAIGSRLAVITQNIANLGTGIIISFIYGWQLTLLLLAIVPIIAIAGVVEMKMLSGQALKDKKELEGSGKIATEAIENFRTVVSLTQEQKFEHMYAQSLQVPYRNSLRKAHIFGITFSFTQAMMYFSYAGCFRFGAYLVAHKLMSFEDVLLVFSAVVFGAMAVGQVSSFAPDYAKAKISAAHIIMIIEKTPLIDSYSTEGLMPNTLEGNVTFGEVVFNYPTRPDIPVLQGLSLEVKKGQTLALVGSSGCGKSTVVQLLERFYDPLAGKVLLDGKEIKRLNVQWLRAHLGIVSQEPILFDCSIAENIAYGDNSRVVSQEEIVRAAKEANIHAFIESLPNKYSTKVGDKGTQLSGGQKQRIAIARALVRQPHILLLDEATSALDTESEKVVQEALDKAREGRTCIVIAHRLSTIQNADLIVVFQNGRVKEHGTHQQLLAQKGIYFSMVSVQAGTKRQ

| Compound | Activity [1] | IC50 [2] [µM] |
| --- | --- | --- |
| Cc1c(OCC(F)(F)F)ccnc1C[S+]([O-])c1nc2ccccc2[nH]1 (stereo unspecified) [LANSOPRAZOLE] | substrate [+] | 62.8 |
| COc1ccc2[nH]c([S+]([O-])Cc3ncc(C)c(OC)c3C)nc2c1 (stereo unspecified) [OMEPRAZOLE] | substrate [+] | 17.7 |
| COc1ccnc(C[S+]([O-])c2nc3ccc(OC(F)F)cc3[nH]2)c1OC (stereo unspecified) [PANTOPRAZOLE] | substrate [+] | 17.9 |
